The numbers were not newly measured in patent publication US20200306335A1, “A Dietary Composition Comprising Plant-Based Sources of Fatty Acids” (priority 2017, published 2020), which cites them from elsewhere.

For one series, the target named is T1, 5 alpha-R Type 1 (Homo sapiens, UniProt P18405).
T1 sequence (P18405 1-259): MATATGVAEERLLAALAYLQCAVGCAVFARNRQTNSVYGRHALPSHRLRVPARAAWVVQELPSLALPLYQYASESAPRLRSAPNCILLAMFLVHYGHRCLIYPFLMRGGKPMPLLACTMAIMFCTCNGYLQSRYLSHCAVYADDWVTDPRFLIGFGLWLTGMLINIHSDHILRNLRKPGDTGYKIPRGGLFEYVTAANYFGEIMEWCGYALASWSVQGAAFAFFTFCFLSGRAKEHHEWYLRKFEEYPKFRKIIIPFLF
The following applies: result in words, from a study cited in the background.

In the next series the target is T2, 5 alpha-R Type 2 (Homo sapiens, UniProt P31213).
T2 sequence (P31213 1-254): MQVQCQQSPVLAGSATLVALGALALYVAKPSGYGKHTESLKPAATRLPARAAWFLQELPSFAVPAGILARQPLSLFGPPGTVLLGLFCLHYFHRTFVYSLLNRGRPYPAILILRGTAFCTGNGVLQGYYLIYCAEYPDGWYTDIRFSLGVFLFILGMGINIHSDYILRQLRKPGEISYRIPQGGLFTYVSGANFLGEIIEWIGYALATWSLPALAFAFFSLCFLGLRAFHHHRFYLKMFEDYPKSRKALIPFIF
As to conditions: result in words, from a study cited in the background.

As for `CCCCCCCCCCCC(=O)O` [Lauric acid, lauric acid], the “inhibition of 5 alpha-R Type 1” value at 5 alpha-R Type 1 was “active inhibitor”. Further, the “inhibition of 5 alpha-R Type 2” value at 5 alpha-R Type 2 is given as “active inhibitor”.

With `CCCCCCCCCCCCCC(=O)O` [Myristic acid, myristic acid], the “inhibition of 5 alpha-R Type 2” value at 5 alpha-R Type 2 is “strongly inhibit”.

Consider `CCCCCCCC/C=C\CCCCCCCC(=O)O` [Oleic, oleic acid], for which the “inhibition of 5 alpha-R Type 1” value at 5 alpha-R Type 1 is reported as “active inhibitors”. The “inhibition of 5 alpha-R Type 2” value on 5 alpha-R Type 2 is “little to no inhibitory activity”.

With `CCCCC/C=C\C/C=C\CCCCCCCC(=O)O` [linoleic acid], the “inhibition of 5 alpha-R Type 1” value on 5 alpha-R Type 1 is on record as “active inhibitors”. The “inhibition of 5 alpha-R Type 2” value on 5 alpha-R Type 2 was “little to no inhibitory activity”.
